Data set [1] concerns Influenza A virus. Put plainly: Antiviral activity against Influenza A virus A/Puerto Rico/8/34 (H1N1) infected in MDCK cells assessed as inhibition of viral replication. The class given is functional, organism-based.
A short description of data set [2]: Cytotoxicity against MDCK cells infected with Influenza A virus A/Puerto Rico/8/34 (H1N1) assessed as reduction in cell viability. The class given is toxicity, cell-based, Canis lupus familiaris. The note with it: dog.
Data set [3] can be described thus: Selectivity index, ratio of CC50 for cytotoxicity against MDCK cells infected with Influenza A virus A/Puerto Rico/8/34 (H1N1) to IC50 for antiviral activity against Influenza A virus A/Puerto Rico/8/34 (H1N1) infected in MDCK cells. Type of data set: toxicity, cell-based. The note with it: dog; read-out: Ratio CC50/IC50.
Data set [4] concerns Influenza A virus. Put plainly: Antiviral activity against Influenza A virus A/Anhui/1/2013 (H7N9) infected in MDCK cells assessed as inhibition of viral replication. The class given is functional, organism-based.
Data set [5] can be described thus: Cytotoxicity against MDCK cells infected with Influenza A virus A/Anhui/1/2013 (H7N9) assessed as reduction in cell viability. The class given is toxicity, cell-based, Canis lupus familiaris. The note with it: dog.
The nature of data set [6]: Selectivity index, ratio of CC50 for cytotoxicity against MDCK cells infected with Influenza A virus A/Anhui/1/2013 (H7N9) to IC50 for antiviral activity against Influenza A virus A/Anhui/1/2013 (H7N9) infected in MDCK cells. Type of data set: toxicity, cell-based. The note with it: dog; read-out: Ratio CC50/IC50.
Data set [7] deals with Influenza A virus. Put plainly: Anti-membranotropic activity in Influenza A virus A/Puerto Rico/8/34 (H1N1) infected in chicken erythrocytes assessed as inhibition of hemagglutinin-driven membrane disruption incubated for 30 mins followed by infection in chicken erythrocytes. Type of data set: functional, organism-based. As to conditions: Erythrocyte, DDE = dose-dependent effect.

Structures are written as SMILES. Some results are limits rather than exact numbers.

Consider `CC1(C)[C@@H]2CC[C@@]1(c1nc(Cc3cccc(F)c3)no1)C(=O)C2`, for which the 50% inhibitory concentration (IC50) – broadly, the concentration needed to halve the response being measured – was 7 µM in data set [1] and over 105 µM in data set [4]. In addition, the values for the CC50 in data set [2] and in data set [5] were 411 µM and 344 µM, respectively. The results for the selectivity ratio in data set [3] and in data set [6] were 56 and 3, respectively. Also, the Activity result in data set [7] was “Dde”.
Regarding `CC1(C)[C@@H]2CC[C@@]1(c1nc(-c3cccnc3)no1)C(=O)C2`, the figures for the IC50 in data set [1] and in data set [4] were 13 µM and over 1060 µM, respectively. The CC50 – broadly, the concentration at which the toxic effect on the cells reaches its halfway point – was over 1060 µM in data set [2] and 1060 µM in data set [5]. Further, the values for the selectivity ratio in data set [3] and in data set [6] were over 79 and 1, respectively. Further, the Activity result in data set [7] is “Dde”.
